From paper PMC9804781, “Identification of a Novel Pseudo‐Natural Product Type IV IDO1 Inhibitor Chemotype” (Angewandte Chemie (International Ed. in English), 2022)
Like-named read-outs stand apart in the source and are kept apart here. Values belong to the molecule of their own block, whether it stands above or below them.

What was measured:
His-tagged IDO2 = molecular target: T1, His-tagged IDO2 (Homo sapiens, UniProt Q6ZQW0); assay: IDO2 Activity Assay; type: biochemical; conditions: 90 min + 120 min at 30 °C
T1 construct: His; purchased BPS Bioscience 72035 (kit)
T1 sequence (Q6ZQW0 1-407): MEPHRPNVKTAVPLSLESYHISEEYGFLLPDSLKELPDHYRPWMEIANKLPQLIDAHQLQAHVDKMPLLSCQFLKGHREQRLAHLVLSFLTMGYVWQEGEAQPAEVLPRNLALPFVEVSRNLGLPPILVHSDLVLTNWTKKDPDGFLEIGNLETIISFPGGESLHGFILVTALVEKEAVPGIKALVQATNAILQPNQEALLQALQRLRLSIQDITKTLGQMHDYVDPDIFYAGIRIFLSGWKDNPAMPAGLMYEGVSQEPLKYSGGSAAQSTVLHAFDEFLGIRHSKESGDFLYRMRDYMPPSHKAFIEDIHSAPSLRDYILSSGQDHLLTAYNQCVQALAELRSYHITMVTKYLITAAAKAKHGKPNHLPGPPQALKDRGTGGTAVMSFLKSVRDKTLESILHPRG
Protocol: Inhibition of indoleamine 2,3-dioxygenase 2 (IDO2) was tested using the Universal IDO1/IDO2/TDO Inhibitor Screening Assay Kit (cat# 72035, BPS Bioscience, US). 10 µg His-tagged IDO2 in IDO2 Assay Buffer was incubated with Complete IDO2 Reaction Solution (1% (v/v) component 2 in component 1) and 50 µM Test Inhibitor (0.5% (v/v) DMSO) for 90 min at 30°C with slow shaking in the dark prior to initiation of the reaction by addition of 20% (v/v) IDO2 Substrate. Samples were incubated for 120 min at 30°C with slow shaking in the dark. Afterwards, absorbance at 321 nm was recorded on the Spark® Multimode Microplate Reader (Tecan, AT), all values were subtracted by the background and normalized to the DMSO control.

His-tagged TDO = molecular target: T2, His-tagged TDO (Homo sapiens, UniProt P48775); assay: TDO Activity Assay; type: biochemical; conditions: 120 min at 37 °C
T2 construct: His; purchased BPS Bioscience 72035 (kit)
T2 sequence (P48775 whole entry): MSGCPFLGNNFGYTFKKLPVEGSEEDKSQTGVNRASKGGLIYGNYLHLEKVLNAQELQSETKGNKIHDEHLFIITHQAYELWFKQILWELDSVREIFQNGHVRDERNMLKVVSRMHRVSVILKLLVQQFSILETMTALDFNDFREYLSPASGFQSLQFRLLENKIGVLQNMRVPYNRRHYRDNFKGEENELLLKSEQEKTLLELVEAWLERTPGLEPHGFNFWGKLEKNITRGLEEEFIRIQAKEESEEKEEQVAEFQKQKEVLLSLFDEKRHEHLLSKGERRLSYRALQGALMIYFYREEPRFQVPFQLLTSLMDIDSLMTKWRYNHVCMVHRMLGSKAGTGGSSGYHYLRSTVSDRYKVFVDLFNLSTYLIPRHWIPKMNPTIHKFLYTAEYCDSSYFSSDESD
Protocol: Inhibition of tryptophan 2,3-dioxygenase (TDO) was tested using the Universal IDO1/IDO2/TDO Inhibitor Screening Assay Kit (cat# 72035, BPS Bioscience, US). 500 ng His-tagged TDO in TDO Assay Buffer was incubated with Reaction Solution and 50 µM Test Inhibitor (0.5% (v/v) DMSO) for 120 min at 37°C with slow shaking in the dark. Afterwards, absorbance at 321 nm was recorded on the Spark® Multimode Microplate Reader (Tecan, AT), all values were subtracted by the background and normalized to the DMSO control. […]
(v/v) component 2 in component 1) and 50 µM Test Inhibitor (0.5% (v/v) DMSO) for 90 min at 30°C with slow shaking in the dark prior to initiation of the reaction by addition of 20% (v/v) IDO2 Substrate. Samples were incubated for 120 min at 30°C with slow shaking in the dark. […]

HeLa cells = system: HeLa cells; set-up: method as in ref 9a = [9]; 9; conditions: ref 9a; cited from earlier work
purified IDO1 = system: purified IDO1; set-up: method as in ref 36b = [36]; 36; conditions: ref 36b; cited from earlier work
autophagy [1] = assay: Automated screen: autophagy inhibition in the presence of rapamycin; type: cell-based; conditions: automated screening assay
Wnt signaling = assay: Automated screen: Wnt signaling; type: cell-based; conditions: automated screening assay
alkaline phosphatase = assay: Automated screen: alkaline phosphatase; conditions: automated screening assay
Kyn levels in HeLa cells = assay: Manual Kyn assay in HeLa cells (p-DMAB detection); type: cell-based; conditions: IFN-γ, L-Trp, compounds 48 h, p-DMAB, mean n=3 ±SD, read-out: Kyn Assay IC50
Protocol: Mammalian cell lines were maintained at 37°C and 5% CO2 in a humidified atmosphere and sub-cultivated twice a week. All cell lines were tested regularly for mycoplasma contamination and were always free of mycoplasma. BxPC-3 cells (DSMZ#760) were grown in RPMI-1640 medium supplemented with 10% FBS, 2 mM L-glutamine, 1 mM sodium pyruvate, 4.5 g/L glucose, 10 mM HEPES and 1.5 g/L NaHCO3. HeLa cells (DSMZ#57) were cultivated in DMEM supplemented with 10% FBS, 4.5 g/L glucose, 4 mM L-glutamine 1 mM sodium pyruvate, 1% non-essential amino acids, 3.7 g/L NaHCO3. SKOV-3 cells (ATCC#HTB-77) were maintained in modified McCoy’s 5A medium supplemented with 10% FBS, 1.5 mM L-glutamine and 2.2 g/L NaHCO3. […]
For manual testing, BxPC-3, HeLa or SKOV-3 cells (20,000 cells/well, 5,000 cells/well or 6,250 cells/well, respectively) were seeded in 96-well plates (BxPC-3 and HeLa) or 384-well plates (SKOV-3) in medium without phenol red. After 24 h, the IDO1 pathway was induced by addition of 50 ng/mL (BxPC-3 and HeLa) or 17.6 ng/mL IFN-γ (SKOV-3) and 380 µM (BxPC-3), 164.15 µM (HeLa) or 450 µM L-Trp (SKOV-3) with simultaneous treatment with the compounds at the indicated concentrations followed by incubation for 48 h. For the hemin competition assay, hemin was added together with IFN-γ, L-Trp and the compounds. Subsequently, trichloroacetic acid was added to a final concentration of 7% (v/v), the plates were incubated for 15 min at room […]
temperature and centrifuged for 10 min at 1800 x g. Afterwards, an equal volume of freshly prepared 2% (w/v) p-DMAB in glacial acetic acid (Ehrlich reagent) was added prior to measuring the absorbance at 492 nm and 650 nm on the Spark® Multimode Microplate Reader (Tecan, AT).
To determine the Kyn levels, the absorbance of the Kyn-p-DMAB adduct A492 was subtracted by the background absorbance A650 and normalized to the DMSO control. Data analysis was performed using a non-linear regression curve fit and GraphPad Prism 9.0 (GraphPad Software, Inc, US) to generate dose-response curves and obtain IC50 values. […]
Subsequently, 10 mM ascorbic acid, 10 μM methylene blue, 2 mM L-Trp and 100 μg/mL catalase were added and samples were incubated for 60 min at room temperature or 37°C. […]

[2] = system: Kyn levels in BxPC-3 cells; assay: Automated (high-throughput) Kyn assay in BxPC-3 cells (Kyn sensor); type: cell-based
Protocol: Mammalian cell lines were maintained at 37°C and 5% CO2 in a humidified atmosphere and sub-cultivated twice a week. All cell lines were tested regularly for mycoplasma contamination and were always free of mycoplasma. BxPC-3 cells (DSMZ#760) were grown in RPMI-1640 medium supplemented with 10% FBS, 2 mM L-glutamine, 1 mM sodium pyruvate, 4.5 g/L glucose, 10 mM […]
HEPES and 1.5 g/L NaHCO3. […]
High-throughput Kyn assay
Automated screening for modulators of Kyn levels in BxPC-3 cells was performed as published earlier.[2] Briefly, BxPC-3 cells (1,000 cells/well) were seeded in black 1536-well plates prior to incubation for 24 h and subsequent treatment with compounds, 380 µM L-Trp and 50 ng/mL IFN-γ for 48 h. Afterwards, trichloroacetic acid was added to a final concentration of 7% (v/v), the plates were incubated for 10 min at 37°C and centrifuged for 10 min at 1620 x g. Kyn was detected by addition of 17.5 µM Kyn sensor[14] in assay buffer (excitation: 535 nm, emission: […]

glucose uptake = assay: Automated screen: glucose uptake; type: cell-based; conditions: automated screening assay
BMP signaling = assay: Automated screen: BMP signaling; type: cell-based; conditions: automated screening assay
hedgehog signaling = assay: Automated screen: hedgehog signaling; type: cell-based; conditions: automated screening assay
autophagy [3] = assay: Automated screen: autophagy induction in the presence of chloroquine; type: cell-based; conditions: automated screening assay
autophagy [4] = assay: Automated screen: autophagy induction under fed condition; type: cell-based; conditions: automated screening assay

inhibition of IDO2 (result in words) (His-tagged IDO2; 50 µM): did not inhibit
inhibition of TDO (result in words) (His-tagged TDO; 50 µM): did not inhibit
SMILES: C[C@@H](C(=O)Nc1ccc(Cl)cc1)C1CCC(c2ccnc3ccc(F)cc23)CC1 (stereo partly shown) [BMS-986205]
IC50 (HeLa cells): 4.2 nM

SMILES: NS(=O)(=O)NCCNc1nonc1C(=NO)Nc1ccc(F)c(Br)c1 [epacadostat]
reduction of IDO2 activity (His-tagged IDO2; 50 μM, n=3): 49.9±0.3%
IC50 (purified IDO1): 73 nM
selectivity over IDO2 (purified IDO1): > 1000 fold
selectivity over TDO (purified IDO1): > 1000 fold
reduction of TDO activity (His-tagged TDO; 50 μM, n=3): 75.5±4.3%

SMILES: CCOC(=O)C1=CC[C@](C(=O)OC)(c2cc3ccccc3n2C)N(S(=O)(=O)c2ccccc2[N+](=O)[O-])[C@@H]1C(=O)OC(C)(C)C [Compound 3b]
autophagy inhibition in the presence of rapamycin, inhibition (autophagy [1]): 10.50 ± 9.50%
Wnt signaling, inhibition (Wnt signaling): 45.33 ± 1.89%
alkaline phosphatase, IC50/EC50 (alkaline phosphatase): inactive
IC50 (Kyn levels in HeLa cells; listed as 3b^a): 2440 ± 560 nM
IC50 (Kyn levels in HeLa cells; listed as 3b^b): 660 ± 50 nM
IC50 (Kyn levels in HeLa cells): 490 ± 100 nM
effect on cellular kynurenine (Kyn) levels ([2]; BxPC-3 cells stimulated with IFN-γ): selectively decreased
kynurenine levels, IC50/EC50 ([2]; automated screening assay): 630 ± 320 nM
kynurenine levels, inhibition ([2]; automated screening assay): 94.0 ± 1%
glucose uptake, inhibition (glucose uptake): 17%
BMP signaling, inhibition (BMP signaling): 37%
hedgehog signaling, IC50/EC50 (hedgehog signaling): 6330 ± 690 nM
hedgehog signaling, inhibition (hedgehog signaling): 73.0 ± 10.0%
autophagy induction in the presence of chloroquine, IC50/EC50 (autophagy [3]): inactive
autophagy induction in the presence of chloroquine, inhibition (autophagy [3]): -3.67 ± 0.94%
autophagy induction under fed condition, IC50/EC50 (autophagy [4]): inactive
autophagy induction under fed condition, inhibition (autophagy [4]): 0.33 ± 0.47%
